Laboratory results reported in the supplement of paper PMC10627819.

Assays:
S. aureus DSM 20231 [1] = test: Bliss interaction score (quartile over a dose matrix) (fitness difference); higher = more antagonism (negative = synergy)
Outline: (§1)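 The Bliss score takes observed fitness and subtracts the expected fitness, calculated as a product of single-drug fitness values. Those single-drug values were inferred from the combination data. Fitness is OD595 at entry into stationary phase divided by the plate's robust no-drug mean, capped at 1, and the score is summarised by quartiles across technical, biological and donor/recipient replicates.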

B. subtilis 168 [2] = test: as above
Outline: as §1

S. pneumoniae D39V [3] = test: as above
Outline: as §1

S. aureus Newman [4] = test: as above
Outline: as §1

S. aureus DSM 20231 [5] = test: fitness (endpoint OD595 vs no drug) (fraction); higher = more growth
Outline: (§2)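 In 384-well plates at 37 °C, cultures began at OD595 0.01 in 30 µl, with 55 µl used for S. pneumoniae. OD595 readings every 30 min for 14 h were corrected by the first reading. Fitness divides the stationary-phase transition optical density by the robust mean of no-drug control wells. The result is capped at 1.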

B. subtilis 168 [6] = test: as above
Outline: as §2

S. pneumoniae D39V [7] = test: as above
Outline: as §2

S. aureus Newman [8] = test: as above
Outline: as §2
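For Bliss interaction score (quartile over a dose matrix) in this document: first quartile when negative (synergy) and third quartile when positive (antagonism).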
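For fitness (endpoint OD595 vs no drug) in this document: OD595 on entry to stationary phase over no-drug wells; at most 1.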

Cn1c2cccc(=O)c-2nc2ccccc21 [Pyocyanin] + COc1cc(Cc2cnc(N)nc2N)cc(OC)c1OC [Trimethoprim]
Settings	Bliss interaction score
B. subtilis 168 [2]	0.0421
S. aureus DSM 20231 [1]	0.163
S. aureus Newman [4]	0.123
S. pneumoniae D39V [3]	0.117

fitness, one replicate
Settings	partner 0.1 µg/mL	partner 0.125 µg/mL	partner 0.2 µg/mL	partner 0.4 µg/mL	partner 1 µg/mL	partner 2 µg/mL
B. subtilis 168 [6], first compound 1.25 µg/mL	0.744	0.7	0.672	0.502	0.354	0.3
B. subtilis 168 [6], first compound 2.5 µg/mL	0.758	0.598	0.669	0.414	0.297	0.273
B. subtilis 168 [6], first compound 5 µg/mL	0.501	0.563	0.429	0.242	0.191	0.211
S. aureus DSM 20231 [5], first compound 1.25 µg/mL	–	0.659	–	–	–	–
S. aureus DSM 20231 [5], first compound 2.5 µg/mL	–	0.738	–	–	–	–
S. aureus DSM 20231 [5], first compound 5 µg/mL	–	0.577	–	–	–	–

fitness
Settings	first compound 1.25 µg/mL	first compound 2.5 µg/mL	first compound 5 µg/mL
B. subtilis 168 [6], partner 0.25 µg/mL	0.653	0.594	–
B. subtilis 168 [6], partner 0.5 µg/mL	0.521	0.439	0.35
S. aureus DSM 20231 [5], partner 0.25 µg/mL	0.553	0.555	0.5
S. aureus DSM 20231 [5], partner 0.5 µg/mL	0.316	0.497	0.442
S. aureus DSM 20231 [5], partner 1 µg/mL	0.0451	0.053	0.0904

CC[C@H]1OC(=O)[C@H](C)[C@@H](O[C@H]2C[C@@](C)(OC)[C@@H](O)[C@H](C)O2)[C@H](C)[C@@H](O[C@@H]2O[C@H](C)C[C@H](N(C)C)[C@H]2O)[C@](C)(O)C[C@@H](C)CN(C)[C@H](C)[C@@H](O)[C@]1(C)O [Azithromycin] + COc1cc(Cc2cnc(N)nc2N)cc(OC)c1OC [Trimethoprim]
Settings	Bliss interaction score
B. subtilis 168 [2]	-0.194
S. aureus DSM 20231 [1]	0.171
S. aureus Newman [4]	0.175
S. pneumoniae D39V [3]	-0.0811

fitness
Settings	partner 0.125 µg/mL	partner 0.25 µg/mL	partner 0.5 µg/mL	partner 1 µg/mL
B. subtilis 168 [6], first compound 0.25 µg/mL	0.669	0.541	0.452	–
B. subtilis 168 [6], first compound 0.5 µg/mL	0.471	–	–	–
B. subtilis 168 [6], first compound 2 µg/mL	–	0.0144	0.0327	–
S. aureus DSM 20231 [5], first compound 0.125 µg/mL	0.789	0.64	0.538	0.0427
S. aureus DSM 20231 [5], first compound 0.25 µg/mL	0.782	0.658	0.562	0.03
S. aureus DSM 20231 [5], first compound 0.5 µg/mL	0.38	–	0.292	0.0131

fitness, B. subtilis 168 [6], one replicate
Settings	partner 0.1 µg/mL	partner 0.125 µg/mL	partner 0.2 µg/mL	partner 0.4 µg/mL	partner 1 µg/mL	partner 2 µg/mL
first compound 0.25 µg/mL	–	–	–	–	0.106	0.0698
first compound 0.5 µg/mL	0.365	–	0.257	0.111	0.051	0.0526
first compound 1 µg/mL	0.144	–	0.0549	0.0194	0.0321	0.0311
first compound 2 µg/mL	0.0143	0.0446	0.0451	0.0182	–	–

C[n+]1ccc(-c2cc[n+](C)cc2)cc1 [Paraquat] + COc1cc(Cc2cnc(N)nc2N)cc(OC)c1OC [Trimethoprim]
Settings	Bliss interaction score
B. subtilis 168 [2]	-0.0973
S. aureus DSM 20231 [1]	0.0513
S. aureus Newman [4]	-0.0902
S. pneumoniae D39V [3]	0.0991

fitness
Settings	first compound 1.25 µg/mL	first compound 2.5 µg/mL	first compound 5 µg/mL
B. subtilis 168 [6], partner 0.25 µg/mL	0.683	0.604	–
B. subtilis 168 [6], partner 0.5 µg/mL	0.385	–	0.298
S. aureus DSM 20231 [5], partner 0.125 µg/mL	0.715	0.741	0.68
S. aureus DSM 20231 [5], partner 0.25 µg/mL	0.602	0.606	0.604
S. aureus DSM 20231 [5], partner 1 µg/mL	0.0458	0.0312	0.0357

fitness, B. subtilis 168 [6], one replicate
Settings	partner 0.1 µg/mL	partner 0.125 µg/mL	partner 0.2 µg/mL	partner 0.4 µg/mL	partner 1 µg/mL	partner 2 µg/mL
first compound 1.25 µg/mL	0.944	0.737	0.744	0.526	0.309	0.332
first compound 2.5 µg/mL	0.947	0.734	0.66	0.459	0.396	0.237
first compound 5 µg/mL	0.873	0.626	0.642	0.358	0.068	0.0488

CC1=C(C(=O)O)N2C(=O)[C@@H](NC(=O)[C@H](N)c3ccccc3)[C@H]2SC1 [Cephalexin] + CN(N=O)C(=O)N[C@@H](C=O)[C@@H](O)[C@H](O)[C@H](O)CO [Streptozotocin]
Settings	Bliss interaction score
B. subtilis 168 [2]	0.094
S. aureus DSM 20231 [1]	-0.0755
S. aureus Newman [4]	0.0503
S. pneumoniae D39V [3]	-0.0789

fitness, one replicate
Settings	first compound 0.125 µg/mL	first compound 0.25 µg/mL	first compound 0.5 µg/mL	first compound 1 µg/mL	first compound 2 µg/mL	first compound 4 µg/mL
B. subtilis 168 [6], partner 0.15 µg/mL	0.918	0.932	≥ 1	–	–	–
B. subtilis 168 [6], partner 0.3 µg/mL	≥ 1	≥ 1	≥ 1	–	–	–
B. subtilis 168 [6], partner 0.6 µg/mL	0.952	0.956	0.967	–	–	–
S. pneumoniae D39V [7], partner 1.2 µg/mL	0.878	0.928	0.953	0.218	0.0084	0.0421
S. pneumoniae D39V [7], partner 2.4 µg/mL	0.922	0.965	0.968	0.313	0.0518	0.0145
S. pneumoniae D39V [7], partner 4.8 µg/mL	0.909	0.901	0.922	0.0033	0	0

fitness, S. aureus Newman [8]
Settings	first compound 0.25 µg/mL	first compound 0.5 µg/mL	first compound 1 µg/mL
partner 0.15 µg/mL	0.874	0.863	0.876
partner 0.3 µg/mL	0.728	0.735	0.786
partner 0.6 µg/mL	0.6	0.591	0.696

CNC(C)C1CCC(N)C(OC2C(N)CC(N)C(OC3OCC(C)(O)C(NC)C3O)C2O)O1 (stereo not given) [Gentamicin] + CN[C@@H]1[C@H](O[C@H]2[C@H](O[C@H]3[C@H](O)[C@@H](O)[C@H](N=C(N)N)[C@@H](O)[C@@H]3N=C(N)N)O[C@@H](C)[C@]2(O)C=O)O[C@@H](CO)[C@H](O)[C@H]1O [Streptomycin]
main component drawn
Settings	Bliss interaction score
B. subtilis 168 [2]	-0.17
S. aureus DSM 20231 [1]	-0.404
S. aureus Newman [4]	0.0694
S. pneumoniae D39V [3]	0.0468

fitness, main component drawn
Settings	partner 1 µg/mL	partner 2 µg/mL	partner 4 µg/mL	partner 8 µg/mL
B. subtilis 168 [6], first compound 0.125 µg/mL	–	–	–	0.0351
B. subtilis 168 [6], first compound 0.25 µg/mL	–	0.0785	0.05	0.0399
S. aureus Newman [8], first compound 0.375 µg/mL	≥ 1	0.929	–	–
S. aureus Newman [8], first compound 0.5 µg/mL	0.957	0.953	0.978	–
S. aureus Newman [8], first compound 0.75 µg/mL	0.99	0.848	–	–
S. aureus Newman [8], first compound 1 µg/mL	0.991	≥ 1	≥ 1	–
S. aureus Newman [8], first compound 2 µg/mL	0.996	≥ 1	0.946	–
S. pneumoniae D39V [7], first compound 2 µg/mL	–	0.918	0.922	0.899
S. pneumoniae D39V [7], first compound 4 µg/mL	–	0.895	0.942	0.848
S. pneumoniae D39V [7], first compound 8 µg/mL	–	0.912	0.912	0.836

S. pneumoniae D39V [7], partner 16 µg/mL, one replicate, main component drawn
Settings	fitness
first compound 2 µg/mL	0.779
first compound 4 µg/mL	0.736
first compound 8 µg/mL	0.628

CNC(C)C1CCC(N)C(OC2C(N)CC(N)C(OC3OCC(C)(O)C(NC)C3O)C2O)O1 (stereo not given) [Gentamicin] + CCN(CC)CCOC(=O)c1ccc(N)cc1 [Procaine]
main component drawn
Settings	Bliss interaction score
B. subtilis 168 [2]	-0.101
S. aureus DSM 20231 [1]	0.0726
S. aureus Newman [4]	0.0373
S. pneumoniae D39V [3]	0.099

fitness, main component drawn
Settings	partner 85.5 µg/mL	partner 171 µg/mL	partner 342 µg/mL
B. subtilis 168 [6], first compound 0.0625 µg/mL	0.89	0.872	0.871
B. subtilis 168 [6], first compound 0.25 µg/mL	0.0903	0.0388	0.109
S. aureus Newman [8], first compound 0.5 µg/mL	–	0.975	0.925
S. aureus Newman [8], first compound 1 µg/mL	–	≥ 1	0.99
S. aureus Newman [8], first compound 2 µg/mL	–	≥ 1	0.944
S. pneumoniae D39V [7], first compound 2 µg/mL	≥ 1	0.981	0.968
S. pneumoniae D39V [7], first compound 4 µg/mL	≥ 1	0.977	0.944
S. pneumoniae D39V [7], first compound 8 µg/mL	0.938	0.965	0.935

fitness, S. aureus Newman [8], one replicate, main component drawn
Settings	first compound 0.375 µg/mL	first compound 0.75 µg/mL	first compound 1.5 µg/mL
partner 85.5 µg/mL	≥ 1	≥ 1	≥ 1
partner 171 µg/mL	≥ 1	≥ 1	0.984
partner 342 µg/mL	≥ 1	≥ 1	≥ 1

CC1=C(C(=O)O)N2C(=O)[C@@H](NC(=O)[C@H](N)c3ccccc3)[C@H]2SC1 [Cephalexin] + CN[C@@H]1[C@H](O[C@H]2[C@H](O[C@H]3[C@H](O)[C@@H](O)[C@H](N=C(N)N)[C@@H](O)[C@@H]3N=C(N)N)O[C@@H](C)[C@]2(O)C=O)O[C@@H](CO)[C@H](O)[C@H]1O [Streptomycin]
Settings	Bliss interaction score
B. subtilis 168 [2]	0.0604
S. aureus DSM 20231 [1]	-0.157
S. aureus Newman [4]	0.0561
S. pneumoniae D39V [3]	-0.153

fitness
Settings	first compound 0.125 µg/mL	first compound 0.25 µg/mL	first compound 0.5 µg/mL	first compound 1 µg/mL	first compound 2 µg/mL	first compound 4 µg/mL
B. subtilis 168 [6], partner 2 µg/mL	0.94	0.923	0.932	–	–	–
B. subtilis 168 [6], partner 8 µg/mL	0.031	0.0416	0.0533	–	–	–
S. aureus Newman [8], partner 1 µg/mL	–	0.944	0.967	0.987	–	–
S. aureus Newman [8], partner 2 µg/mL	–	0.976	≥ 1	≥ 1	–	–
S. pneumoniae D39V [7], partner 4 µg/mL	–	–	–	0.454	0.0189	0.0459
S. pneumoniae D39V [7], partner 8 µg/mL	–	–	–	0.408	0.0381	0.0337

fitness, S. pneumoniae D39V [7], one replicate
Settings	first compound 0.125 µg/mL	first compound 0.25 µg/mL	first compound 0.5 µg/mL	first compound 1 µg/mL	first compound 2 µg/mL	first compound 4 µg/mL
partner 2 µg/mL	0.86	0.913	0.953	0.386	0.0034	0.0206
partner 4 µg/mL	0.901	0.91	0.911	–	–	–
partner 8 µg/mL	0.961	0.898	0.896	–	–	–
partner 16 µg/mL	–	–	–	0.198	0.0581	0.0194
